# Reference: US20170368134A1, “PROTEASOME INHIBITORS FOR TREATING A DISORDER RELATED TO AN ACCUMULATION OF NON-DEGRADED ABNORMAL PROTEIN OR A CANCER” (UNIVERSITÉ D'AIX-MARSEILLE, priority 2015, published 2017)
# Peptide text beside a SMILES is read from it. * marks the point of attachment. Cbz = O=C(OCc1ccccc1)*
# Tests used:
# progerin mRNA = assay: qRT-PCR of progerin transcripts in HGPS fibroblasts; assay type: cell-based, human; conditions: 10 μM MG132, time dependent, relative to DMSO
# Description: (§1) Total RNA was isolated using the RNeasy plus extraction kit (Qiagen, Valencia, Calif.). 1 μg of RNA was reverse transcribed using the High Capacity cDNA Reverse Transcription Kit (Applied Biosystems). Real time PCR amplification was carried out with the TaqMan® Gene Expression Master Mix (Applied Biosystems) on a LightCycler 480 (Roche, Germany) using pre-designed primers for GAPDH (Hs00266705_g1), Progerin (F: […] (SEQ ID NO:3) R: […] (SEQ ID NO:4) and probe: […] (SEQ ID NO:5)), Lamin A (F: […] (SEQ ID NO:6) R: […] (SEQ ID NO:7) and probe: […] (SEQ ID NO:8)) and lamin C (F: […] (SEQ ID NO:9) R: […] (SEQ ID NO:10) and probe: […] (SEQ ID NO:11)) (Applied Biosystems) using the program: UNG incubation at 50° C. for 2 minutes, initial denaturation at 95° C. for 10 minutes, 40 cycles of amplification: denaturation at 95° C. for 15 seconds and annealing at 60° C. for 1 minute. All PCR reactions were performed in triplicate. Threshold cycle (Ct) values were used to calculate relative mRNA expression by the 2-ΔΔ^T relative quantification method with normalization to GAPDH expression.
# lamin C = assay: Western blot of lamin C protein in HGPS fibroblasts; assay type: cell-based, human; conditions: 48 h treatment with MG132 (10 μM)
# Description: (§2) Total fibroblast proteins were extracted in 200 μL of NP40 Cell Lysis buffer (Invitrogen, Carlsbad, Calif.) containing Protease and Phosphatase Inhibitor Cocktail (Thermo Scientific). Alternatively, cells were lysed with urea (8 M urea, 5 mM dithiothreitol, 150 mM NaCl, 50 mM Tris-Cl pH 7.5, protease and phosphatase Inhibitor Cocktail (Thermo Scientific)). Cells were sonicated twice (30 sec each), incubated at 4° C. for 30 minutes and then centrifuged at 10,000 g for 10 minutes. Protein concentration was evaluated with the bicinchoninic acid technique (Pierce BCA Protein Assay Kit), absorbance at 562 nm is measured using nanodrop 1000 (Thermo Fisher Scientific Inc.) Equal amounts of proteins (40 μg) were loaded onto 10% Tis-Glycine gel (Criterion™ XT precast gel) using XT Tricine running Buffer (Biorad, USA). After electrophoresis, gels were electro transferred onto nitrocellulose membranes or Immobilon-FL polyvinylidene fluoride membranes (Millipore), blocked in Odyssey Blocking Buffer diluted 1:1 in PBS for 1 hour at room temperature, and incubated overnight at 4° C. or 2 hours at room temperature with various primary antibodies. […]
# lamin C mRNA = assay: qRT-PCR of lamin C transcripts in HGPS cells; assay type: cell-based, human; conditions: 10 μM MG132 time-course
# Description: as §1
# progerin [1] = assay: Intramuscular MG132 in Lmna G609G/G609G mice, progerin in gastrocnemius muscle; assay type: in vivo, mouse
# Description: (A) Lamin A, progerin, lamin C and SRSF-1 specific bands, corresponding to DMSO-treated left muscle (−) and 1 μg/Kg MG132-treated right muscle (+), were quantified by ImageJ software and their expression levels were normalized to GAPDH values.
# Knock-in mouse model (Lmna^G609G/G609G) carrying the c.1827C>T (p.Gly609Gly) mutation in the endogenous Lmna gene, corresponding to the human HGPS mutation c.1824C>T (p.Gly609Gly) have been described previously (31). MG132 (1 or 10 μg/Kg body weight) was injected under isoflurane anesthesia into the right gastrocnemius muscle of […] homozygous knock-in mice (Lmna^G609G/G609G) 3 times per week for 2 weeks. Contralateral muscle served as control (DMSO). MG132 was dissolved in dimethyl sulfoxide (DMSO) and then diluted in 100 μl sterile phosphate-buffered saline (PBS) for intramuscular injection. […] Animal experiments have been carried out in compliance with the European guidelines for the care and use of laboratory animals (EU directive 2010/63/EU) and in accordance with the recommendations provided by the guide for the care and use of the laboratory animals of the French national Institute for Health and Medical Research (INSERM) and the ethical committee of Aix-Marseille University.
# progerin [2] = assay: Progerin levels in HGPS iPS-derived MSC and VSMC; assay type: cell-based, human; conditions: data not shown
# Description: Generation of induced pluripotent stem cells (iPS) by reprogramming was carried out using fibroblasts isolated from HGPS patient biopsies performed in the Assistance Publique Hopitaux de Marseille (13-8243) or provided by Coriell Institute (Camden, USA) (AG01972). Cell lines were reprogrammed to iPSC using Yamanaka's original method based on retrovirus-mediated transfection of four transcription factors, namely Oct3/4, Sox2, c-Myc, and Klf4 (41). The iPSC lines were amplified up to the 15th passage before differentiation.
# HGPS iPSC were grown on STO mouse fibroblasts, inactivated with […] mitomycin C, seeded at 30,000/cm2 and grown as previously described (42). For differentiation, iPSC were differentiated into mesenchymal stem cells (MSC-iPSC) using directed protocols for differentiation previously published (43-45). VSMC were obtained from iPSC by fluorescent-activated cell sorting (FACS) separation of CD31+ cells (46).
# To determine whether MG132 also influences the level of progerin in other cell lineages, the inventors generated iPSC from HGPS patients' fibroblasts. Mesenchymal Stem Cells (MSC) and Vascular Smooth Muscle Cells (VSMC) derived from HGPS iPSC presented the commonly described abnormalities of HGPS fibroblasts, namely, loss of proliferation capacities, premature senescence and nuclear blebbing (69, 70). […]
# LC3B-II = assay: Western blot of LC3B-II (autophagy level) in HGPS fibroblasts; assay type: cell-based, human; conditions: HGPS fibroblasts following MG132 treatment
# Description: as §2
compound,measurement,setting,value
"CC(C)C[C@@H](C=O)NC(=O)[C@H](CC(C)C)NC(=O)[C@H](CC(C)C)NC(=O)OCc1ccccc1 [MG132, Z-Leu-Leu-Leu-al] (Cbz-Leu-Leu-Leu-aldehyde)",progerin mRNA expression,progerin mRNA,almost extinguished progerin mRNA expression
same,lamin C protein levels,lamin C,increased
same,lamin C transcript levels,lamin C mRNA,much less pronounced decrease of lamin C transcript levels
same,progerin level in treated muscle,"progerin [1]; 1 μg/Kg intramuscular, 3 times per week for 2 weeks, vs contralateral muscle",significant decrease of progerin level
same,progerin level in treated muscle,progerin [1]; 10 μg/kg body weight intramuscular,significant decrease of progerin levels
same,progerin levels,"progerin [2]; HGPS fibroblasts, iPS-MSC and iPS-VSMC",decreased
same,concentration from which progerin reduction is significant,"progerin [2]; iPS-VSMC, progerin immunostaining",≥ 1.25 µM
same,LC3B-II levels,LC3B-II,increased
